What was measured:
Wild Type ALK kinase = target: T1, Wild Type ALK kinase (Homo sapiens, UniProt Q9UM73); experiment: HTRF KinEASE-TK assay, inhibitory activity on wild type ALK kinase; assay type: biochemical; conditions: wild type ALK 1 ng/μl, substrate 1 μM, 30° C. 35 minutes, read-out: Inhibition on ALK kinases (wildtype), IC50
T1 construct: purchased Sino-US Crown Bioscience, Inc. batch number ALK 20110607
How it was run: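 ALK kinase at 1 ng/μl and substrate at 1 μM were reacted with compound (1% DMSO) in buffer with 5 mM MgCl2 and 1 mM DTT for 35 min at 30 °C. HTRF detection used the 665/615 ratio, normalised to no-compound wells and to 10.4 μM LDK-378 wells. IC50 came from a concentration-response fit.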

Karpas-299 cell line = experiment: CellTiter-Glo cell proliferation inhibition on Karpas-299 cell line; assay type: cell-based; conditions: Homo sapiens, 96 h, Karpas-299 cells, 5000 cells/well, 4 days drug treatment
Method: 4. Cell Proliferation Inhibitory Activities of the Compounds of the Present Invention on Karpas-299 Cell Line
? experimental method ? CellTiter-Glo® Luminescent Cell Viability Assay kit from Promega company was used to detect cell proliferation inhibitory activities of the compounds on Karpas-299 cell line.
? instrument ? Envision 2104 plate reader from PerKinElmer company; Vi-Cell XR cell counter from Beckman Counter company; MCO-18AIC CO2 incubator from SANYO company.
? experiment material ? CellTiter-Glo® Luminescent Cell Viability Assay Kit (Promega company, catalog No. G7573); Karpas-299 cell line (DSMZ, catalog No. ACC31); RPMI-1640 medium (HyClone company, catalog No. SH30809.01B); fetal bovine serum (FBS) (Gibco company, catalog No. 10099-141); PBS (HyClone company, catalog No. SH30256.01B); 96 wells cell culture plate (Corning company, catalog No. 3610); DMSO (AMRESCO company, catalog No. 0231); 96 wells plates (for diluting compounds) (CITOTEST company, catalog No. Ref36020096D);
? experimental condition ? Karpas-299 cells in exponential growth phase were collected and viable cells were counted by Vi-Cell XR cell counter. Cell suspension was adjusted to 62500 cells/ml with culture medium (RPMI-1640+10% FBS). 80 μl cell suspension was added into each well of 96 wells cell culture plate so that so that the final cell number of Karpas-299 cells was 5000 cells/well. The cells were cultivated in an incubator with an atmosphere of 37° C., 5% CO2 and 95% humidity for 2 hours and then each well was added with 20 μl compounds in RPMI-1640 medium solution (the final concentration of DMSO was 0.5%). 4 days after drug treatment, each well was added with 50 μl CellTiter-Glo solution which was previously thawed and equilibrated to room temperature, and mixed for 2 minutes with microplate shaker. After placing at room temperature for 10 minutes, luminescence reading value was measured with PerkinElmer Envision 2104 plate reader and the data was analyzed.
? tested samples ? Compounds of the examples.
Luminescence value of DMSO solvent control (Vvehicle control, which is the mean luminescence value from DMSO solvent control group)
Tested luminescence value (Vsample, which is the luminescence value from given concentration of compounds group) Inhibition rate (%)=(1−Vsample/Vvehicle control)×100
? data processing ? IC50 of compounds was calculated by using XLfit program in Excel.

T1 sequence (Q9UM73 19-1620): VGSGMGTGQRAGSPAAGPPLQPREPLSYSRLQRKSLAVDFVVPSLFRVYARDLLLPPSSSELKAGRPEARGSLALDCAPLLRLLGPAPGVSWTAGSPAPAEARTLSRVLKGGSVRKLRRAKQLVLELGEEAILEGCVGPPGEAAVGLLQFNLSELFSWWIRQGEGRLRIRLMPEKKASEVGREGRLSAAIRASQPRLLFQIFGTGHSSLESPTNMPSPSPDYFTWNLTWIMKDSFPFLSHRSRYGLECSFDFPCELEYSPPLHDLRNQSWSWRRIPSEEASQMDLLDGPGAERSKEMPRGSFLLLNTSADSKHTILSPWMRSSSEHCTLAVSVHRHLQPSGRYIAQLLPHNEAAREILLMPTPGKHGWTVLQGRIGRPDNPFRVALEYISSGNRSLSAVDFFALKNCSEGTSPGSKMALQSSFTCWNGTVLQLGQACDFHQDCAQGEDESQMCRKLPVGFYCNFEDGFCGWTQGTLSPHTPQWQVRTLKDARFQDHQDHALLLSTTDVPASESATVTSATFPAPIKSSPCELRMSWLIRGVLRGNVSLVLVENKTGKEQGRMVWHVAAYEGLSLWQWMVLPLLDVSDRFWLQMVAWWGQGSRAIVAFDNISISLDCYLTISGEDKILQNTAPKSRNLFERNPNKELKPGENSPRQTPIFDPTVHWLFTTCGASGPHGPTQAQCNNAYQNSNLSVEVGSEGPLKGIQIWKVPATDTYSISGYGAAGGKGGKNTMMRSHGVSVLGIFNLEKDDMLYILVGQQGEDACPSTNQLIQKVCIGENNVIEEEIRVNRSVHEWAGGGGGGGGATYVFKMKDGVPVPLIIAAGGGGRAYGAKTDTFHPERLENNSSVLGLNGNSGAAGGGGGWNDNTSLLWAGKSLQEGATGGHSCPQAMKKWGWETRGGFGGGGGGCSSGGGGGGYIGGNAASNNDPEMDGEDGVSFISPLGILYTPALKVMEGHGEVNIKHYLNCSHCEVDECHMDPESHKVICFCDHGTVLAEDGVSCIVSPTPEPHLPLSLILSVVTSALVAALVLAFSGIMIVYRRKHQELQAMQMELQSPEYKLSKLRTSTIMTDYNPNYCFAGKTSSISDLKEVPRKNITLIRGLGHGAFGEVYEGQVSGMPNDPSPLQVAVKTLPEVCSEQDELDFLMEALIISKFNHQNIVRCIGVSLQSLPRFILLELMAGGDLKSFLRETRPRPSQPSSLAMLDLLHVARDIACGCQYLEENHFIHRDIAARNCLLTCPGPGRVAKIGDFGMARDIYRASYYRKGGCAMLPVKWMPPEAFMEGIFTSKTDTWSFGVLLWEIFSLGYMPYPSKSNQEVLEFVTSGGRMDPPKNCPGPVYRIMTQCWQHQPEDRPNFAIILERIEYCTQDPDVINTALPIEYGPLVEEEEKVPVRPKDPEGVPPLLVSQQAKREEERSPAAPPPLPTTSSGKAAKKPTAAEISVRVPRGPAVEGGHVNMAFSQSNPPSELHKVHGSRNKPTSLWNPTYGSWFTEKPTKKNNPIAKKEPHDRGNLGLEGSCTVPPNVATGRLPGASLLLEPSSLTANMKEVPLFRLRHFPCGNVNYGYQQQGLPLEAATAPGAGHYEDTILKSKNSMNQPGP

IC50 (Wild Type ALK kinase) [nM]	IC50 (Karpas-299 cell line) [nM]	SMILES
3	19	Cc1cc(Nc2ncc(Cl)c(Nc3cn(C4CC4)nc3S(=O)(=O)C(C)C)n2)c(OC2CC2)cc1C1CCNCC1 [Final product 27]
9	18	Cc1cc(Nc2ncc(Cl)c(Nc3cn(C)nc3S(=O)(=O)C(C)C)n2)c(OC2CC2)cc1C1CCN(S(C)(=O)=O)CC1 [Final product 167, 5-chloro-N^2-(2-cyclopropoxy-5-methyl-4-(1-methanesulfonyl-piperidin-4-yl)-phenyl)-N^4-(3-(isopropylsulfonyl)-1-methyl-1H-pyrazol-4-yl)pyrimidin-2,4-diamine]
5	26	CC(C)CS(=O)(=O)c1nn(C)cc1Nc1nc(Nc2ccc(C3CCN(C)CC3)cc2OC2CC2)ncc1Cl [Final product 43]
5	30	Cc1cc(Nc2ncc(Cl)c(Nc3cn(C)nc3S(=O)(=O)CC(C)C)n2)c(OC2CC2)cc1C1CCN(C(C)C)CC1 [Final product 127]
6	20	Cc1cc(Nc2ncc(Cl)c(Nc3cn(C)nc3S(=O)(=O)C(C)C)n2)c(OC(F)(F)F)cc1C1CCN(C)CC1 [Final product 31]
4	15	CC(C)S(=O)(=O)c1nn(C)cc1Nc1nc(Nc2cc(Cl)c(C3CCN(C)CC3)cc2OC2CC2)ncc1Cl [Final product 47]
9	18	Cc1cc(Nc2ncc(Cl)c(Nc3cn(C)nc3S(=O)(=O)C(C)C)n2)c(OC2CC2)cc1C1CCOCC1 [Final product 107]
4	38	CC(C)S(=O)(=O)c1nn(C2CC2)cc1Nc1nc(Nc2cc(Cl)c(C3CCNCC3)cc2OC2CC2)ncc1Cl [Final product 23]
7	7	CC(=O)N1CCN([C@H]2CC[C@H](c3cc(OC4CC4)c(Nc4ncc(Cl)c(Nc5cn(C)nc5S(=O)(=O)C(C)C)n4)cc3C)CC2)CC1 [Final product 204]
7	12	Cc1cc(Nc2ncc(Cl)c(Nc3cn(C)nc3S(=O)(=O)C(C)C)n2)c(OC(C)C)cc1C1CCN(C(C)C)CC1 [Final product 126]
10	19	Cc1cc(Nc2ncc(Cl)c(Nc3cn(C)nc3S(=O)(=O)C(C)C)n2)c(OC2CC2)cc1C1CCN(C2COC2)CC1 [Final product 156]
3	3	CCOc1cc(C2CCN(CCO)CC2)c(C)cc1Nc1ncc(Cl)c(Nc2cn(C)nc2S(=O)(=O)C(C)C)n1 [Final product 135]
7	14	CC(=O)N1CCC(c2cc(OC3CC3)c(Nc3ncc(Cl)c(Nc4cn(C)nc4S(=O)(=O)C(C)C)n3)cc2C)CC1 [Final product 160, 1-acetyl-4-(4-(5-chloro-4-(3-(isopropylsulfonyl)-1-methyl-1H-pyrazol-4-amino)pyrimidin-2-amine)-5-cyclopropoxy-2-methylphenyl)piperidine]
9	19	Cc1cc(Nc2ncc(Cl)c(Nc3cn(C)nc3S(=O)(=O)CC(C)C)n2)c(OC2CC2)cc1C1CCNCC1 [Final product 28]
1	10	CC(C)S(=O)(=O)c1nn(C2CC2)cc1Nc1nc(Nc2cc(F)c(C3CCNCC3)cc2OC2CC2)ncc1Cl [Final product 21]
1	3	CC(C)S(=O)(=O)c1nn(C2CC2)cc1Nc1nc(Nc2ccc(C3CCN(C)CC3)cc2OC2CC2)ncc1Cl [Final product 42]
4	6	Cc1cc(Nc2ncc(Cl)c(Nc3cn(C)nc3S(=O)(=O)C(C)C)n2)c(OC2CC2)cc1[C@H]1CC[C@@H](N(C)C)CC1 [Final product 189]
5	5	Cc1cc(Nc2ncc(Cl)c(Nc3cn(C)nc3S(=O)(=O)C(C)C)n2)c(OC2CC2)cc1[C@H]1CC[C@H](NC(C)C)CC1 [Final product 198]

IC50 (Wild Type ALK kinase) [nM]	IC50 (Karpas-299 cell line) [nM]	SMILES
5	10	Cc1cc(Nc2ncc(Cl)c(Nc3cn(C)nc3S(=O)(=O)C(C)C)n2)c(OC(C)C)cc1[C@H]1CC[C@H](NC(C)C)CC1 [Final product 188]
10	62	Cc1cc(Nc2ncc(Cl)c(Nc3cn(C)nc3S(=O)(=O)C(C)C)n2)c(OC(CF)CF)cc1C1CCN(C)CC1 [Final product 34]
4	8	CC(C)S(=O)(=O)c1nn(C2CC2)cc1Nc1nc(Nc2ccc(C3CCNCC3)cc2OC2CC2)ncc1Cl [Final product 16]
14	15	Cc1cc(Nc2ncc(Cl)c(Nc3cn(C)nc3S(=O)(=O)CC(C)C)n2)c(OC2CC2)cc1[C@H]1CC[C@H](NC(C)C)CC1 [Final product 182]
19	24	Cc1cc(Nc2ncc(Cl)c(Nc3cn(C)nc3S(=O)(=O)C(C)C)n2)c(OC2CC2)cc1C1CCN(C(=O)C2CC2)CC1 [Final product 162, 1-cyclopropylformyl-4-(4-(5-chloro-4-(3-(isopropylsulfonyl)-1-methyl-1H-pyrazol-4-amino)pyrimidin-2-amine)-5-cyclopropoxy-2-methylphenyl)piperidine]
5	11	Cc1cc(Nc2ncc(Cl)c(Nc3cn(C)nc3S(=O)(=O)C(C)C)n2)c(OC2CC2)cc1C1=CCN(C)CC1 [Final product 50]
16	119	CC(C)S(=O)(=O)c1nn(C)cc1Nc1nc(Nc2ccc(C3CCNCC3)cc2OC(F)(F)F)ncc1Cl [Final product 9]
3	9	CC(C)S(=O)(=O)c1nn(C)cc1Nc1nc(Nc2ccc(C3CCNC3)cc2OC2CC2)ncc1Cl (centres unmarked) [Final product 15]
35	26	Cc1cc(Nc2ncc(Cl)c(Nc3cn(C)nc3S(=O)(=O)CC(C)C)n2)c(OC2CC2)cc1[C@H]1CC[C@H](NC2CC2)CC1 [Final product 180]
3	8	Cc1cc(Nc2ncc(Cl)c(Nc3cn(C)nc3S(=O)(=O)C(C)C)n2)c(OC2CC2)cc1C1CCN(C(=O)CC#N)CC1 [Final product 166, 1-cyano acetyl-4-(4-(5-chloro-4-(3-(isopropylsulfonyl)-1-methyl-1H-pyrazol-4-amino)pyrimidin-2-amine)-5-cyclopropoxy-2-methylphenyl)piperidine]
4	20	CCNC(=O)N1CCC(c2cc(OC3CC3)c(Nc3ncc(Cl)c(Nc4cn(C)nc4S(=O)(=O)C(C)C)n3)cc2C)CC1 [Final product 174, 4-(4-(5-chloro-4-(3-(isopropylsulfonyl)-1-methyl-1H-pyrazol-4-amine)pyrimidin-2-amine)-5-cyclopropoxy-2-methyl-phenyl)-N-ethyl-piperidin-1-carboxamide]
2		CC(C)S(=O)(=O)c1nn(C2CC2)cc1Nc1nc(Nc2cc(F)c(C3CCN(C)CC3)cc2OC2CC2)ncc1Cl [Final product 46]
15	74	Cc1cc(Nc2ncc(Cl)c(Nc3cn(C)nc3S(=O)(=O)C(C)C)n2)c(OCC2CC2)cc1C1CCN(C)CC1 [Final product 39]
2	28	CC(C)CS(=O)(=O)c1nn(C)cc1Nc1nc(Nc2ccc(C3CCNC3)cc2OC2CC2)ncc1Cl (centres unmarked) [Final product 18]
4	6	Cc1cc(Nc2ncc(Cl)c(Nc3cn(C)nc3S(=O)(=O)C(C)C)n2)c(OC2CCC2)cc1C1CCN(CCO)CC1 [Final product 138]
8	62	Cc1cc(Nc2ncc(Cl)c(Nc3cn(C)nc3S(=O)(=O)CC(C)C)n2)c(OC(C)C)cc1C1CN(C)C1 [Final product 36]
3	16	Cc1cc(Nc2ncc(Cl)c(Nc3cn(C)nc3S(=O)(=O)C(C)C)n2)c(OC2CC2)cc1OC1CCN(C)CC1 [Final product 111]

SMILES	IC50 (Wild Type ALK kinase) [nM]	IC50 (Karpas-299 cell line) [nM]
Cc1cc(Nc2ncc(Cl)c(Nc3cn(C)nc3S(=O)(=O)C(C)C)n2)c(OC2CC2)cc1C1CCN(CCO)CC1 [Final product 133, 2-(4-(4-(5-chloro-4-(3-(isopropylsulfonyl)-1-methyl-1H-pyrazol-4-amino)pyrimidin-2-amino)-5-cyclopropoxy-2-methylphenyl)piperidin-1-yl) ethanol]	2	4

From patent US10023593B2, “ALK kinase inhibitor, and preparation method and uses thereof” (BEIJING PEARL BIOTECHNOLOGY LIMITED LIABILITY COMPANY, priority 2014, dated 2018)
